In US8192962B2, “Processes for detecting toxic substances” (Daikin Industries, Ltd., priority 2001, dated 2012):

System: Mitochondria-located protein genes
Test: DNA chip mRNA expression in yeast, mitochondria-located protein genes (Table 2)
Type: cell-based, Saccharomyces cerevisiae S288C
Details: cells incubated two hours with the chemical substance
Outline: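 Values are treated/untreated fluorescence ratios from a whole-genome yeast DNA chip hybridized over 12 hours at 65° C with Cy3- or Cy5-labelled cDNA from poly(A) mRNA. Log-phase S288C yeast in YPD at 25° C had received a single toxic chemical for two hours, dosed to slow growth without killing.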

S=C([S-])NCCNC(=S)[S-].[Zn+2] [(11), zinc N,N′-ethylenebis(dithiocarbamate)]
The level of expressed mRNA in the presence of chemical substance/The level of expressed mRNA in the absence of chemical substance (yeast gene YAL039C): 1.1 | The level of expressed mRNA in the presence of chemical substance/The level of expressed mRNA in the absence of chemical substance (yeast gene YBL022C): 1.1 | The level of expressed mRNA in the presence of chemical substance/The level of expressed mRNA in the absence of chemical substance (yeast gene YBL030C): 1.1 | The level of expressed mRNA in the presence of chemical substance/The level of expressed mRNA in the absence of chemical substance (yeast gene YBL038W): 0.7 | The level of expressed mRNA in the presence of chemical substance/The level of expressed mRNA in the absence of chemical substance (yeast gene YBL099W): 2.1 | The level of expressed mRNA in the presence of chemical substance/The level of expressed mRNA in the absence of chemical substance (yeast gene YBR003W): 1.3 | The level of expressed mRNA in the presence of chemical substance/The level of expressed mRNA in the absence of chemical substance (yeast gene YBR044C): 1.1 | The level of expressed mRNA in the presence of chemical substance/The level of expressed mRNA in the absence of chemical substance (yeast gene YBR091C): 0.7 | The level of expressed mRNA in the presence of chemical substance/The level of expressed mRNA in the absence of chemical substance (yeast gene YBR122C): 1.2 | The level of expressed mRNA in the presence of chemical substance/The level of expressed mRNA in the absence of chemical substance (yeast gene YBR185C): 1.2 | The level of expressed mRNA in the presence of chemical substance/The level of expressed mRNA in the absence of chemical substance (yeast gene YBR221C): 1.2 | The level of expressed mRNA in the presence of chemical substance/The level of expressed mRNA in the absence of chemical substance (yeast gene YBR251W): 1.5 | The level of expressed mRNA in the presence of chemical substance/The level of expressed mRNA in the absence of chemical substance (yeast gene YBR282W): 0.9 | The level of expressed mRNA in the presence of chemical substance/The level of expressed mRNA in the absence of chemical substance (yeast gene YCL057W): 1.6 | The level of expressed mRNA in the presence of chemical substance/The level of expressed mRNA in the absence of chemical substance (yeast gene YCR046C): 1.5 | The level of expressed mRNA in the presence of chemical substance/The level of expressed mRNA in the absence of chemical substance (yeast gene YCR083W): 1.8 | The level of expressed mRNA in the presence of chemical substance/The level of expressed mRNA in the absence of chemical substance (yeast gene YDL067C): 1.4 | The level of expressed mRNA in the presence of chemical substance/The level of expressed mRNA in the absence of chemical substance (yeast gene YDL181W): 0.8 | The level of expressed mRNA in the presence of chemical substance/The level of expressed mRNA in the absence of chemical substance (yeast gene YDL198C): 2.5 | The level of expressed mRNA in the presence of chemical substance/The level of expressed mRNA in the absence of chemical substance (yeast gene YDR079W): 1.3 | The level of expressed mRNA in the presence of chemical substance/The level of expressed mRNA in the absence of chemical substance (yeast gene YDR178W): 2.0 | The level of expressed mRNA in the presence of chemical substance/The level of expressed mRNA in the absence of chemical substance (yeast gene YDR231C): 1.3 | The level of expressed mRNA in the presence of chemical substance/The level of expressed mRNA in the absence of chemical substance (yeast gene YDR258C): 1.7 | The level of expressed mRNA in the presence of chemical substance/The level of expressed mRNA in the absence of chemical substance (yeast gene YDR298C): 1.2 | The level of expressed mRNA in the presence of chemical substance/The level of expressed mRNA in the absence of chemical substance (yeast gene YDR347W): 0.8 | The level of expressed mRNA in the presence of chemical substance/The level of expressed mRNA in the absence of chemical substance (yeast gene YDR377W): 1.4 | The level of expressed mRNA in the presence of chemical substance/The level of expressed mRNA in the absence of chemical substance (yeast gene YDR529C): 0.8 | The level of expressed mRNA in the presence of chemical substance/The level of expressed mRNA in the absence of chemical substance (yeast gene YEL024W): 0.9 | The level of expressed mRNA in the presence of chemical substance/The level of expressed mRNA in the absence of chemical substance (yeast gene YEL039C): 1.7 | The level of expressed mRNA in the presence of chemical substance/The level of expressed mRNA in the absence of chemical substance (yeast gene YER178W): 2.5 | The level of expressed mRNA in the presence of chemical substance/The level of expressed mRNA in the absence of chemical substance (yeast gene YFL016C): 1.2 | The level of expressed mRNA in the presence of chemical substance/The level of expressed mRNA in the absence of chemical substance (yeast gene YGL018C): 1.1 | The level of expressed mRNA in the presence of chemical substance/The level of expressed mRNA in the absence of chemical substance (yeast gene YGL187C): 0.7 | The level of expressed mRNA in the presence of chemical substance/The level of expressed mRNA in the absence of chemical substance (yeast gene YGL191W): 1.6 | The level of expressed mRNA in the presence of chemical substance/The level of expressed mRNA in the absence of chemical substance (yeast gene YGR008C): 2.6 | The level of expressed mRNA in the presence of chemical substance/The level of expressed mRNA in the absence of chemical substance (yeast gene YGR028W): 1.1 | The level of expressed mRNA in the presence of chemical substance/The level of expressed mRNA in the absence of chemical substance (yeast gene YGR062C): 1.6 | The level of expressed mRNA in the presence of chemical substance/The level of expressed mRNA in the absence of chemical substance (yeast gene YGR076C): 1.7 | The level of expressed mRNA in the presence of chemical substance/The level of expressed mRNA in the absence of chemical substance (yeast gene YGR082W): 1.3 | The level of expressed mRNA in the presence of chemical substance/The level of expressed mRNA in the absence of chemical substance (yeast gene YGR174C): 1.3 | The level of expressed mRNA in the presence of chemical substance/The level of expressed mRNA in the absence of chemical substance (yeast gene YGR244C): 1.8 | The level of expressed mRNA in the presence of chemical substance/The level of expressed mRNA in the absence of chemical substance (yeast gene YHR008C): 2.1 | The level of expressed mRNA in the presence of chemical substance/The level of expressed mRNA in the absence of chemical substance (yeast gene YIL155C): 1.3 | The level of expressed mRNA in the presence of chemical substance/The level of expressed mRNA in the absence of chemical substance (yeast gene YJL096W): 1.2 | The level of expressed mRNA in the presence of chemical substance/The level of expressed mRNA in the absence of chemical substance (yeast gene YJL102W): 0.7 | The level of expressed mRNA in the presence of chemical substance/The level of expressed mRNA in the absence of chemical substance (yeast gene YJL133W): 1.2 | The level of expressed mRNA in the presence of chemical substance/The level of expressed mRNA in the absence of chemical substance (yeast gene YJL166W): 1.4 | The level of expressed mRNA in the presence of chemical substance/The level of expressed mRNA in the absence of chemical substance (yeast gene YJL180C): 1.4 | The level of expressed mRNA in the presence of chemical substance/The level of expressed mRNA in the absence of chemical substance (yeast gene YJR045C): 1.4 | The level of expressed mRNA in the presence of chemical substance/The level of expressed mRNA in the absence of chemical substance (yeast gene YJR077C): 1.6
